According to PMC8344233, “Anticancer activity and toxicity of new quaternary ammonium geldanamycin derivative salts and their mixtures with potentiators” (Journal of Enzyme Inhibition and Medicinal Chemistry, 2021):

Legend:
MDA-MB-231 = experiment: MTT cytotoxicity assay, MDA-MB-231 (1st panel); type: cell-based, human; details: for IC50: Homo sapiens, MDA-MB-231, ± SD, MTT, 72 h; for selectivity index SI (MDA-MB-231): IC50 normal cell line CCD39Lu/IC50 MDA-MB-231
Method: (§1) Cell survival was measured as the percentage absorbance compared to the control (nontreated cells). […]
(§2) SI indexes were calculated from equation SI = IC50 normal cell line HDF/IC50 respective cancerous cell line (Table 2). A beneficial SI > 1.0 indicates a compound with efficacy against tumor cell greater than the toxicity against normal cells.
(§3) All experiments were carried out with human breast adenocarcinoma (MDA-MB-231 and MCF-7), hepatocellular carcinoma (HepG2), human cervical adenocarcinoma (HeLa) cancer cell lines, and human normal lung fibroblast (CCD39Lu) cell line. The cell line was purchased from the European Collection of Cells Cultures (ECACC, Salisbury, UK), and cultured in DMEM with phenol red supplemented with 10% (v/v) FBS, 1% (v/v) penicillin/streptomycin, and 1% (v/v) L-glutamine at 37 °C, in a humidified atmosphere containing 5% CO2.
(§4) The tested compounds were dissolved in DMSO to the final concentration 10 mM and stored […]
(§5) The cytotoxic effect of the tested compounds was determined by MTT assay. MDA-MB-231, MCF-7, HepG2, HeLa, and CCD39Lu cells were seeded in 96 wells plates at density 2x10^4 cells/well and incubated overnight under cell culture condition. Next, cells were treated with tested compounds at concentrations of 10 µM; 5 µM; 2.5 µM; 1.2 µM; 0.6 µM; 0.3 µM; 0.15 […]
(§6) µM. Moreover, GDM (for MCF-7) and 8 (for MCF-7 and MDA-MB-231) due to high cytotoxicity, were additionally tested at a lower concentration range of 2.5 µM; 1.2 µM; 0.6 µM; 0.3 µM; 0.15µM; 0.07 µM; 0.03 µM. DMSO was used as a control, and the concentration […]
(§7) Tested compounds were added to cells in the medium without phenol red. Cells were incubated 72 h at 37 °C in a humidified atmosphere containing 5% CO2.
(§8) Then, the medium was aspirated and MTT solution at a concentration of 0.59 mg/mL in cell culture medium was added to each well. Plates were incubated for 1.5 hours at 37 °C, and then plates were centrifuged for 3 minutes. The formazan crystals were dissolved in 200 µl DMSO and plates were agitated on a plate shaker at 300 –500 rpm for 10 minutes. Absorbance at 570 nm was measured using a plate reader (Biotek Instruments, Elx -800). Data were normalized to the mean absorption of control cells. All experiments were performed at least three times. […]

MCF-7 = experiment: MTT cytotoxicity assay, MCF-7 (1st panel); type: cell-based, human; details: for IC50: Homo sapiens, MCF7, 72 h, ± SD, MTT, 72 h; for selectivity index SI (MCF-7): IC50 normal cell line CCD39Lu/IC50 MCF-7
Method: as §1, §2, §3, §4, §5, §6, §7, §8

HeLa = experiment: MTT cytotoxicity assay, HeLa (1st panel); type: cell-based, human; details: for IC50: Homo sapiens, HeLa, ± SD, MTT, 72 h; for selectivity index SI (HeLa): IC50 normal cell line CCD39Lu/IC50 HeLa
Method: as §1, §2, §3, §4, §5, §6, §7, §8

HepG2 = experiment: MTT cytotoxicity assay, HepG2 (1st panel); type: cell-based, human; details: for IC50: Homo sapiens, HepG2, ± SD, MTT, 72 h; for selectivity index SI (HepG2): IC50 normal cell line CCD39Lu/IC50 HepG2
Method: as §1, §2, §3, §4, §5, §6, §7, §8

CCD39Lu = experiment: MTT cytotoxicity assay, normal lung fibroblasts CCD39Lu; type: cell-based; details: Fibroblast, ± SD, healthy human lung fibroblasts, 72 h, read-out: IC50 CCD39Lu (toxicity in normal cells)
Method: as §1, §2, §3, §4, §5, §6, §7, §8

SKBR-3 = experiment: SRB cytotoxicity assay, SKBR-3 (2nd panel); type: cell-based, human; details: for IC50: Homo sapiens, SK-BR-3, ± SD, SRB, 72 h, mixtures equimolar 1:1; for selectivity index SIHDF (SKBR-3): IC50 normal cell line HDF/IC50 SKBR-3
Method: (§9) Human cancer cells SKBR-3 (human breast cancer cell line) and SKOV-3 (ovarian cancer cell line) were cultured in McCoy’s Modified Medium. […]
(§10) Medium. Human Dermal Fibroblasts cell line (HDF) was cultured in Fibroblast Basal Medium.
(§11) Each medium was supplemented with 10% fetal bovine serum, 1% L-glutamine, and 1% penicillin/streptomycin solution. The cell lines were kept in the incubator at 37◦C. The optimal plating density of cell lines was determined to be 5 × 104. All the cell lines and mediums were obtained from American Type Culture Collection (ATCC) supplied by LGC-Standards. The protein-staining SRB (Sigma-Aldrich) microculture colorimetric assay, developed by the National Cancer Institute (USA) for in vitro antitumor screening was used in this study, to estimate the cell number by providing a sensitive index of total cellular protein content, being linear to cell density. The monolayer cell culture was trypsinized and the cell count was adjusted to 5 × 10^4 cells. To each well of the 96 well microtiter plate, 0.1 mL of the diluted cell suspension (approximately […]) was added. After 24 hours, when a partial monolayer was formed, the supernatant was washed out and 100 μL of six different compound concentrations (0.1, 0.2, 1, 2, 10, and 20 μM) were added to the cells in microtitre plates. The tested compounds were dissolved in DMSO (containing 10 % of water) (100 μL) and the […]
(§12) lines. The cells were exposed to compounds for 72 hours at 37 °C in a humidified atmosphere (90% RH) containing 5% CO2. After that, 25 μL of 50 % trichloroacetic acid was added to the wells and the plates were incubated for 1 hour at 4◦C. The plates were then washed out with the distilled water to remove traces of medium and next dried by the air. The air-dried plates were stained with 100 μL of 0.4% sulforhodamine B (prepared in 1 % acetic acid) and kept for 30 minutes at room temperature. The unbound dye was removed by rapidly washing with 1% […]
(§13) acetic acid and then air dried overnight. The protein-bound dye was dissolved in 100 μL of 10 mM unbuffered Tris base (pH 10.5) for optical density determination at 490 nm. All cytotoxicity experiments were performed three times. Cell survival was measured as the percentage absorbance compared to the control (nontreated cells). Cytarabine (ara-C) and GDM were used as the internal standards. Additionally biological assays were performed in Human Dermal Fibroblasts cell line (HDF) in aim to evaluate cytotoxicity of GDM and its 1-13 analogs in healthy cells. SI indexes were calculated from equation SI = IC50 normal cell line HDF/IC50 respective cancerous cell line (Table 2). A beneficial SI > 1.0 indicates a compound with efficacy against tumor cell greater than the toxicity against normal cells. […]

SKOV-3 = experiment: SRB cytotoxicity assay, SKOV-3 (2nd panel); type: cell-based, human; details: for IC50: Homo sapiens, SK-OV-3, ± SD, SRB, 72 h, mixtures equimolar 1:1; for selectivity index SIHDF (SKOV-3): IC50 normal cell line HDF/IC50 SKOV-3
Method: as §9, §10, §11, §12, §13

PC-3 = experiment: SRB cytotoxicity assay, PC-3 (2nd panel); type: cell-based, human; details: for IC50: Homo sapiens, PC-3, ± SD, SRB, 72 h, mixtures equimolar 1:1; for selectivity index SIHDF (PC-3): IC50 normal cell line HDF/IC50 PC-3
Method: as §10, §11, §12, §13

U-87 = experiment: SRB cytotoxicity assay, U-87 (2nd panel); type: cell-based, human
Method: U-87MG cells (glioblastoma cell line) were cultured in Eagle’s Minimal Essential Medium. Human Dermal Fibroblasts cell line (HDF) was cultured in Fibroblast Basal Medium.
as §11, §12, §13

A-549 = experiment: SRB cytotoxicity assay, A-549 (2nd panel); type: cell-based, human
Method: as §10, §11, §12, §13

HDF = experiment: SRB cytotoxicity assay, human dermal fibroblasts HDF; type: cell-based; details: 72 h, ± SD, mixtures equimolar 1:1, read-out: IC50 HDF (toxicity in normal cells)
Method: as §10, §11, §12, §13

physchem = details: water, Solubility SH2O
cancer cell lines = experiment: Cytotoxicity, values summarised over several cancer cell lines; type: cell-based, human; details: Homo sapiens, approximate level over the three cancer cell lines; mixtures equimolar 1:1; read-out: IC50 in SKBR-3, SKOV-3 and PC-3
Method: Human cancer cells SKBR-3 (human breast cancer cell line) and SKOV-3 (ovarian cancer cell line) were cultured in McCoy’s Modified Medium. Human cancer cells PC-3 (human prostate cancer cell line) were cultured in F-12K medium, as well as A549 cell line (lung cancer cell line). U-87MG cells (glioblastoma cell line) were cultured in Eagle’s Minimal Essential Medium. Human Dermal Fibroblasts cell line (HDF) was cultured in Fibroblast Basal Medium.
as §11, §12
acetic acid and then air dried overnight. The protein-bound dye was dissolved in 100 μL of 10 mM unbuffered Tris base (pH 10.5) for optical density determination at 490 nm. All cytotoxicity experiments were performed three times. Cell survival was measured as the percentage absorbance compared to the control (nontreated cells). Cytarabine (ara-C) and GDM were used as the internal standards. Additionally biological assays were performed in Human Dermal Fibroblasts cell line (HDF) in aim to evaluate cytotoxicity of GDM and its 1-13 analogs in healthy cells. SI indexes were calculated from equation SI = IC50 normal cell line HDF/IC50 respective cancerous cell line (Table 2). A beneficial SI > 1.0 indicates a compound with efficacy against tumor cell greater than the toxicity against normal cells.
as §3, §4, §5

Row | SMILES | IC50 (MDA-MB-231) [µM] | selectivity index SI (MDA-MB-231) (MDA-MB-231) | IC50 (MCF-7) [µM] | selectivity index SI (MCF-7) (MCF-7) | IC50 (HeLa) [µM] | selectivity index SI (HeLa) (HeLa) | IC50 (HepG2) [µM] | selectivity index SI (HepG2) (HepG2) | IC50 (CCD39Lu) [µM] | IC50 (SKBR-3) [µM] | selectivity index SIHDF (SKBR-3) (SKBR-3) | IC50 (SKOV-3) [µM] | selectivity index SIHDF (SKOV-3) (SKOV-3) | IC50 (PC-3) [µM] | selectivity index SIHDF (PC-3) (PC-3) | CC50 (HDF) [µM] | further results
1 | CO[C@H]1/C=C\C=C(/C)C(=O)NC2=CC(=O)C(NC3CCN(S(C)(=O)=O)CC3)=C(C[C@@H](C)C[C@H](OC)[C@H](O)[C@@H](C)/C=C(\C)[C@@H]1OC(N)=O)C2=O [Compound 7] | 2.36 ± 0.35 | 5.34 | 0.96 ± 0.51 | 13.13 | 1.61 ± 0.61 | 7.83 | 1.68 ± 0.32 | 7.50 | 12.6 ± 0.21 | – | – | – | – | – | – | – | –
2 | CO[C@H]1/C=C\C=C(/C)C(=O)NC2=CC(=O)C(NC3CCN(C(C)=O)CC3)=C(C[C@@H](C)C[C@H](OC)[C@H](O)[C@@H](C)/C=C(\C)[C@@H]1OC(N)=O)C2=O [Compound 6] | 3.16 ± 0.89 | > 3.16 | 0.61 ± 0.14 | > 16.39 | 4.75 ± 0.35 | > 2.11 | 3.38 ± 0.13 | > 2.96 | > 10 | – | – | – | – | – | – | – | –
3 | CO[C@H]1/C=C\C=C(/C)C(=O)NC2=CC(=O)C(NC3C[N+]4(Cc5ccc([N+](=O)[O-])o5)CCC3CC4)=C(C[C@@H](C)C[C@H](OC)[C@H](O)[C@@H](C)/C=C(\C)[C@@H]1OC(N)=O)C2=O (some centres unmarked) [Compound 11] | 3.93 ± 1.6 | > 2.54 | 4.67 ± 2 | > 2.14 | 8.91 ± 3.19 | > 1.12 | 8.86 ± 0.17 | > 1.13 | > 10 | 6.49 ± 0.07 | 1.22 | 6.04 ± 0.38 | 1.31 | 6.22 ± 0.13 | 1.27 | 7.91 ± 0.91 | IC50 (U-87; Homo sapiens, U-87 MG, ± SD, SRB, 72 h): 6.06 ± 0.58 µM; selectivity index SIHDF (U-87) (U-87; IC50 normal cell line HDF/IC50 U-87): 1.31; IC50 (A-549; Homo sapiens, A549, ± SD, SRB, 72 h): 6.83 ± 0.32 µM; selectivity index SIHDF (A-549) (A-549; IC50 normal cell line HDF/IC50 A-549): 1.16; solubility (physchem): 2300 µg/mL
4 | COc1cccc2c1C(=O)c1c(O)c3c(c(O)c1C2=O)C[C@@](O)(C(=O)CO)C[C@@H]3O[C@H]1C[C@H](N)[C@H](O)[C@H](C)O1 [DOX, doxorubicin, reference compound] | – | – | – | – | – | – | – | – | – | 0.72 ± 0.04 | 2.11 | 0.74 ± 0.06 | 2.05 | 0.68 ± 0.01 | 2.24 | 1.52 ± 0.03 | IC50 (cancer cell lines): ~0.7 µM
5 | CO[C@H]1/C=C\C=C(/C)C(=O)NC2=CC(=O)C(NC3CCN(Cc4ccccc4)CC3)=C(C[C@@H](C)C[C@H](OC)[C@H](O)[C@@H](C)/C=C(\C)[C@@H]1OC(N)=O)C2=O [Compound 5] | 2.28 ± 0.54 | 6.71 | 1.84 ± 0.57 | 8.32 | 1.56 ± 0.14 | 9.81 | 1.63 ± 0.49 | 9.39 | 15.3 ± 0.12 | – | – | – | – | – | – | – | –
